Assay results as given in patent publication US12702671B2, “Calcineurin inhibitors of the setron family for the treatment of hearing loss” (SENSORION, priority 2015, dated 2026).
Counter-ions that a name gives are not always drawn.

System: calcineurin
Test: Calcineurin phosphatase activity in cerebellar granule neurons after 4 DIV (malachite green colorimetric assay, Test A)
Assay type: cell-based, Wistar rat
Experimental: According to Test A, phosphatase calcineurin activity is assessed in cerebellar granule neurons (CGNs) using a colorimetric assay kit based on quantification of the green complex formed between malachite green, molybdate and free phosphate released. CGNs are detached from plates, for example by scraping, rinsed in ice-cold tris buffer solution (TBS) and counted. About 10 million cells are lysed in 1 ml of the provided lysis buffer and centrifuged at 150,000×g at 4° C. for 45 min, and the supernatant may be stored at −70° C. until analysis. Prior to calcineurin activity assay, free phosphate and nucleotides are removed from cellular extract by gel filtration. To ensure the complete removal of phosphate, malachite green reagent may be added, which will turn the color green in presence of phosphate. A specific calcineurin substrate is added to phosphate-free cellular extracts and after appropriate incubation period, malachite green reagent is applied. The rapid green color formation from the reaction is measured, for example on a spectrophotometer. The developed color is proportional to the calcineurin phosphatase activity of samples. Absorbance values, read at 620 nm, may thus be transformed to percentage calcineurin activity relative to K25 control treatment (100%). Cerebellar granule cells were dissociated from the cerebellae of 7-day-old Wistar rat pups as described (Kramer et al. 2003, Mol Cell Neurosci 23:325-330). Briefly, the cerebellae were removed, rinsed in HBSS-BSA, minced, digested with 0.025% trypsin and incubated at 37° C. for 15 min. To stop the digestion, DMEM containing 10% fetal calf serum was added; then a single cell suspension was obtained through pipetting up and down the sedimented tissue. Following centrifugation, cells were counted using trypan blue exclusion test in a Burker chamber. This method is based on the ability of viable cells to exclude trypan blue due to their intact cell membranes, leaving them unstained while nonviable cells take up the dye. Cells at 3.2×10^5/cm^2 were seeded in DMEM Hepes modification supplemented with 10% fetal calf serum, 100 μg/ml pyruvate, and 100 μg/ml gentamicin on Polystyrene 12-well tissue culture plates (CELLSTAR) coated with poly-L-lysine. After 24 h, 10 μM cytosine arabinofuranoside was added to inhibit the growth of non-neuronal cells. All pharmacological interventions begun at this time in the culture medium containing 25 mM KCl (K25), which caused depolarization of granule cells and consequently activated gene expression machinery. Moreover, the viability of granule neurons was higher in this milieu and therefore provides the possibility to maintain cells for several days. Indeed, 25 mM KCl is required in the medium for CGN cultures to maintain adequate calcineurin activity and cell maturation and depolarization (Kramer et al., 2003, Mol Cell Neurosci 23:325-330; Vallano et al. 2006, Neuropharmacology 50: 651-660). Cultures received simple medium (K25 control) or medium containing a setron compound in HCl salt form (Tocris Bioscience, Bristol, UK) at concentrations of 10 nM, 100 nM or 1000 nM for 4 days in vitro (DIV). Phosphatase calcineurin activity was assessed in CGNs using a colorimetric assay kit based on quantification of the green complex formed between malachite green, molybdate and free phosphate released. CGNs were detached from plates by scraping, rinsed in ice-cold tris buffer solution (TBS) and counted. About 10 million cells are lysed in 1 ml of the provided lysis buffer and centrifuged at 150,000×g at 4° C. for 45 min, and the supernatant was stored at −70° C. until analysis. Prior to calcineurin activity assay, free phosphate and nucleotides were removed from cellular extract by gel filtration. To ensure the complete removal of phosphate, malachite green reagent was added, which will turn the color green in presence of phosphate. […]

- effect on calcineurin phosphatase activity (CGNs in K25 medium, 10, 100 or 1000 nM for 4 DIV, relative to K25 control (100%)): significantly inhibited
Compound: CN1C(=O)COc2c(C(=O)NC3CN4CCC3CC4)cc(Cl)cc21 (stereo not drawn) [azasetron HCl, N-(1-azabicyclo[2.2.2]octan-8-yl)-6-chloro-4-methyl-3-oxo-1,4-benzoxazine-8-carboxamide]
- change of calcineurin inhibition with increasing concentration (CGNs, 4 DIV, 10-1000 nM): increased to different degree with increasing concentrations
- concentrations at which calcineurin inhibition was significant (CGNs, 4 DIV, tested at 10, 100, 1000 nM, p<=0.05 vs K25 control): 1000 nM
